Where two headings read alike, the source gives them in different places.
Key:
[1] = tested on: MCF-7 breast cancer cell line; assay: Resazurin Cell Growth Inhibition Assay, MCF-7; format: cell-based; settings: Homo sapiens, MCF7; MCF-7, 48 h, mean ± SD of three experiments; read-out: Cytotoxic Activity IC50
Method: (§1) Compounds 1–4 were assessed for their in vitro cytotoxic activity against three human cell lines i.e., breast (MCF-7), liver (HepG2), colon (HCT-116) cancer cell lines as well as in lung fibroblast (WI38) normal cell line using the Resazurin Cell Growth Inhibition Assay. Both erlotinib and 5-Fluorouracil (5-FU) were used as reference drugs. Concentrations of the tested compounds that give about 50% inhibition of cell viability (IC50, mean of triplicate) in µM were obtained. […] However, if replaced by a hydrazone substituent, a more prominent efficacy toward the three cancer cell lines was observed. […] The most promising in vitro antiproliferative activity was obtained when the hydrazone is bearing electron-withdrawal groups i.e., 4-chlorobenzylidene moiety (compound 3f), 3,4-dichloro benzylidene moiety (compound 3g) and 4-fluorobenzylidene moiety (compound 3h) compared to the standard treatment (Table 1, Figure 5). The inhibitory activity of compounds was reduced when the hydrazone group is bearing electron donating groups i.e., 4-methyl group (compound 3b), 2-methoxy group (compound 3c), 4-hydroxy (compound 3d) and 4-dimethylamino group (compound 3e). The trend of antiproliferative activity of compounds […] against all tested cell lines has the following descending order: (3g > 3h >3f >3a >3b > 3c > 3d > 3e). […]. […] This is mainly because this compound has the highest lipophilicity as well as less electron density as it has 2-Cl atoms (more electronegativity) on the indolyl pyrimidine-thiazolidinone.
(§2) In vitro cytotoxicity was measured according to the Resazurin Cell Growth Inhibition Assay Alamar Blue or Resazurin (Promega, Mannheim, Germany) reduction assay was used to assess the cytotoxicity of the studied samples. The assay tests cellular viability and mitochondrial function. Briefly, adherent cells were grown in tissue culture flasks, and then harvested by treating the flasks with 0.025% trypsin and 0.25 mM EDTA for 5 min. Once detached, cells were washed, counted, and an aliquot (5 × 10^3 cells) were placed in each well of a 96-well cell culture plate in a total volume of […]. Cells were allowed to attach overnight and then treated with samples. […]. Each assay was performed as triplicates. […] […]. The viability was compared based on a comparison with untreated cells. IC50 (on cancer cells) were the concentration of sample required to inhibit 50% of the cell proliferation and were calculated from a calibration curve by a linear regression using Microsoft Excel.

[2] = tested on: HCT-116 colon cancer cell line; assay: Resazurin Cell Growth Inhibition Assay, HCT-116; format: cell-based, human; settings: HCT-116, 48 h, mean ± SD of three experiments, read-out: Cytotoxic Activity IC50
Method: as §1, §2

[3] = tested on: HepG2 liver cancer cell line; assay: Resazurin Cell Growth Inhibition Assay, HepG2; format: cell-based, human; settings: HepG2, 48 h, mean ± SD of three experiments, read-out: Cytotoxic Activity IC50
Method: as §1, §2

[4] = Resazurin Cell Growth Inhibition Assay, WI38 normal cells; format: cell-based; settings: human, WI38 normal lung fibroblast cells, WI-38 normal cells, mean ± SD of three experiments, read-out: Cytotoxic Activity IC50
Method: as §1, §2

[5] = tested on: MCF-7, HepG2 and HCT-116 cancer cell lines; assay: Resazurin assay, range over the three cancer cell lines; format: cell-based; settings: Homo sapiens; range over MCF-7, HepG2 and HCT-116; read-out: IC50 range against the cancer cell lines
Method: Compounds 1–4 were assessed for their in vitro cytotoxic activity against three human cell lines i.e., breast (MCF-7), liver (HepG2), colon (HCT-116) cancer cell lines as well as in lung fibroblast (WI38) normal cell line using the Resazurin Cell Growth Inhibition Assay. Both erlotinib and 5-Fluorouracil (5-FU) were used as reference drugs. Concentrations of the tested compounds that give about 50% inhibition of cell viability (IC50, mean of triplicate) in µM were obtained. […] However, if replaced by a hydrazone substituent, a more prominent efficacy toward the three cancer cell lines was observed. […] The most promising in vitro antiproliferative activity was obtained when the hydrazone is bearing electron-withdrawal groups i.e., 4-chlorobenzylidene moiety (compound 3f), 3,4-dichloro benzylidene moiety (compound 3g) and 4-fluorobenzylidene moiety (compound 3h) compared to the standard treatment (Table 1, Figure 5). […]
In vitro cytotoxicity was measured according to the Resazurin Cell Growth Inhibition Assay Alamar Blue or Resazurin (Promega, Mannheim, Germany) reduction assay was used to assess the cytotoxicity of the studied samples. […] Once detached, cells were washed, counted, and an aliquot (5 × 10^3 cells) were placed in each well of a 96-well cell culture plate in a total volume of 100 mL. […]

[6] = tested on: Ehrlich ascites carcinoma (EAC); assay: In vivo antitumor assay in EAC tumor bearing mice; settings: 0.5 mg/mouse for nine days; for Tumor Volume: ascitic fluid; for MST (mean survival time): mean of two experiments; for Viable Tumor Cell Count: trypan blue
Method: The antitumor activity of these compounds was assessed by the change in tumor volume, viable cell count, mean survival time (MST) and % increase in lifespan (% ILS) of the EAC tumor bearing mice and 5-FU (standard treatment). The mean survival time (MST) and % increase in lifespan (% ILS) of EAC tumor bearing mice, as well as the influence of these compounds on viable tumor cells and the tumor volume, are shown in Table 2. The hematological profile of these mice was also assessed in comparison with the standard treatment with 5-FU, and no obvious effect on RBCs or WBCs was observed. […] MST = (day of first death + day of last death)/2 %ILS = [(MST of treated group/MST of control group) − 1] × 100 […]
In vivo antitumor evaluation was carried out as previously reported (see Supplementary Materials).
2. Biological Evaluation Details: a) In vivo antitumor assay: Materials . Adult Swiss male mice (weighing 20 -25 g) were obtained from the Department of Pharmacology, Faculty of Pharmacy, Mansoura University, Egypt.
They were kept in microlon boxes at temperature 25 ± 2 °C with a regular 12 hrs light/dark cycle. In addition, food and water were available. EAC cells (procured from NCI, Cairo, Egypt) were harvested and prepared, then their total number was counted.
Procedure. 7 Groups of mice ( n = 4) were used.
Group 1: Negative control (no EAC cells) - received normal saline.
Group 2: Positive control (EAC cells) - received normal saline.
Group 3: EAC cells - treated with compound 3g (0.5 mg/mouse).
Group 4: EAC cells - treated with compound 4f (0.5 mg/mouse).
Group 5: EAC cells - treated with compound 4g (0.5 mg/mouse).
Group 6: EAC cells - treated with compound 4h (0.5 mg/mouse).
Group 7: EAC cells - treated with 5-fluorouracil (0.5 mg/mouse).
2 x 10^6 EAC cells were injected intraperitoneally in each mouse (groups 2-7). After […]
for nine days, then blood samples were withdrawn for assessment of blood count.
Determination of tumor volume
The ascetic fluid was gathered from the peritoneal cavity and its volume was determined. It was then centrifuged, and the packed tumor cell volume was measured.
Determination of viable tumor cell count
100 μL Sample of EAC cells (from three mice per group) was utilized and diluted twenty times with saline. Cells were stained with trypan blue, viable cells are not stained, while the dead ones are stained. The number of viable cells was calculated.

EGFR kinase = EGFR kinase (Homo sapiens, UniProt P00533); assay: In vitro EGFR inhibitory assay (EnzyChrom Kinase Assay Kit EKIN-400); settings: for inhibition at 10 µM: read-out: % Inhibition of EGFR
Sequence of EGFR kinase (P00533 25-1210): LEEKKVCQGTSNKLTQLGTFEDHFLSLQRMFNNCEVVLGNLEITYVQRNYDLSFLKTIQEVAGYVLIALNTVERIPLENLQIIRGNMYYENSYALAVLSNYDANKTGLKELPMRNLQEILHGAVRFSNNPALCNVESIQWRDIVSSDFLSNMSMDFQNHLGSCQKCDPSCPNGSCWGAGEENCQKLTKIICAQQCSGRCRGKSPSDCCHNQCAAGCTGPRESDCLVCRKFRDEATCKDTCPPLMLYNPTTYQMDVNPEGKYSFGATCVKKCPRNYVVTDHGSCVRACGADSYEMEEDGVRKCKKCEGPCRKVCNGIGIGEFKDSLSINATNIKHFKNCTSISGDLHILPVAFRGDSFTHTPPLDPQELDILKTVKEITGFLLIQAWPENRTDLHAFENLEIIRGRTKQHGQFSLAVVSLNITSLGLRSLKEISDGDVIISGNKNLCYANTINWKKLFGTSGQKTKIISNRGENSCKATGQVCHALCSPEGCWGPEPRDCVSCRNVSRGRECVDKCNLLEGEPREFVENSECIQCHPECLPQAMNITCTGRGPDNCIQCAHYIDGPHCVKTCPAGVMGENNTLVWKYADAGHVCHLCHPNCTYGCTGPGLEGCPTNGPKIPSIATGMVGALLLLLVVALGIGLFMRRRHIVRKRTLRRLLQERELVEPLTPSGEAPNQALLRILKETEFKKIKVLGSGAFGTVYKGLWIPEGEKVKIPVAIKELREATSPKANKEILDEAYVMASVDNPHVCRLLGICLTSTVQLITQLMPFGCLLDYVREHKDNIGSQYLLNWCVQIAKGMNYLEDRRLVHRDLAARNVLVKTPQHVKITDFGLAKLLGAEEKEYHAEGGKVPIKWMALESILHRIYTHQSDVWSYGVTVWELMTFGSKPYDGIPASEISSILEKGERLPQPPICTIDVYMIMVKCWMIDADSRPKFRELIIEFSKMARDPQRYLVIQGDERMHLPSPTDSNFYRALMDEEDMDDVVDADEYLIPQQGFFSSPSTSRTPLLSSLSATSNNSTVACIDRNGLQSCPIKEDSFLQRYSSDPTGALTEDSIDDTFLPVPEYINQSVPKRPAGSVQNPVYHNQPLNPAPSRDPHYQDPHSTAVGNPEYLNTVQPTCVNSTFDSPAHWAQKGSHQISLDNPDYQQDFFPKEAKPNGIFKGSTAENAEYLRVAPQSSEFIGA
Method: A first-generation EGFR inhibitor, erlotinib, was used as standard treatment. […] IC50 for these compounds was determined. […] In addition, 20 µL reaction mixture containing the EGFR kinase, ATP, and substrate in the provided assay buffer. Set up a blank control that contains ATP and substrate but no enzyme. Incubate at desired temperature for 30 min. Prepare 900 µL 10µM (adenosine diphosphate) ADP premix by mixing 3 µL of 3 mM standard and 897 µL distilled water. Transfer 20 µL standards into separate wells of the plate. Prepare enough working reagent for each well. Add 40 µL working reagent to each assay well. Tap plate to mix. Incubate at room temperature for 10 min. Read fluorescence intensity at λexc = 530nm and λem = 590 nm, and then calculate kinase activity.

IC50 [5]	melting point	Compound	IC50 [1]	IC50 ([2]; Homo sapiens)	IC50 ([3]; Homo sapiens)	IC50 at 48 h [4]	IC50 [2]	IC50 [3]	Tumor Volume [6]	MST (mean survival time) [6]	Viable Tumor Cell Count [6]	inhibition at 10 µM (EGFR kinase)	IC50 (EGFR kinase)
26.8 to 28.2 µM	245 to 247 °C	CCOC(=O)C1=C(C)NC(=S)NC1c1c[nH]c2ccccc12 (stereo not shown) [Compound 1, Ethyl 4-(1H-indol-3-yl)-6-methyl-2-thioxo-1,2,3,4-tetrahydropyrimidine-5-Carboxylate]	26.8 ± 2.2 µM	27.2 ± 1.11 µM	28.8 ± 2.25 µM	30 ± 1.2 µM							
21.6 to 25.5 µM	208 to 210 °C	CC1=C(C(=O)NN)C(c2c[nH]c3ccccc23)NC(=S)N1 (stereo not shown) [Compound 2, 4-(1H-indol-3-yl)-6-methyl-2-thioxo-1,2,3,4-tetrahydropyrimidine-5-carbohydrazide]	21.6 ± 1.8 µM	22.2 ± 1.5 µM	25.5 ± 2.17 µM	40.5 ± 2.25 µM							
		CC1=C(C(=O)NN2C(=O)CSC2c2ccc(Cl)c(Cl)c2)C(c2c[nH]c3ccccc23)NC(=S)N1 (stereo not shown) [Compound 4g, N-(2-(3,4-dichlorophenyl)-4-oxothiazolidin-3-yl)-4-(1H-indol-3-yl)-6-methyl-2-thioxo-1,2,3,4-tetrahydropyrimidine-5-carboxamide]	5.1 ± 1.14 µM	6.6 µM	5.02 µM	16.3 ± 3.21 µM	5.02 ± 1.19 µM	6.6 ± 1.4 µM	0.89 mL	46 days	21.70 10^6/mL	79%	
		CC1=C(C(=O)NN2C(=O)CSC2c2ccc(F)cc2)C(c2c[nH]c3ccccc23)NC(=S)N1 (stereo not shown) [Compound 4h, N-(2-(4-fluorophenyl)-4-oxothiazolidin-3-yl)-4-(1H-indol-3-yl)-6-methyl-2-thioxo-1,2,3,4-tetrahydropyrimidine-5-carboxamide]	6.6 ± 1.28 µM	7.02 ± 0.46 µM	7.5 ± 1.29 µM	18.1 ± 2.06 µM			1.18 mL	40 days	28.50 10^6/mL	70%	0.39 ± 0.02 µM

Source: PMC8037142, “Design, Synthesis, Molecular Modeling and Antitumor Evaluation of Novel Indolyl-Pyrimidine Derivatives with EGFR Inhibitory Activity” (Molecules, 2021)
